For the data set the following is noted: human, in vivo.

Here are results for one compound from patent publication US20170000405A1, “RAPID, REPRODUCIBLE, NON-INVASIVE PREDICTOR OF CADAVERIC DONOR LIVER GRAFT UTILIZATION” (THE REGENTS OF THE UNIVERSITY OF CALIFORNIA, priority 2014, published 2017).

Method: To evaluate the method for rapid, non-invasive, quantitative assessment of liver function, performed before liver graft procurement, a LiMON liver function monitor, manufactured by Pulsion Medical Systems, Munich, Germany, was used for the assessment of brain-dead donor livers by measuring Indocyanine Green Plasma Disappearance Rates (ICG-PDRs). […] The LiMON monitor 102 measures Indocyanine Green (ICG) 104 clearance from the blood, after the ICG is administered intravenously to the donor, by non-invasive pulse-densitometry using, for example, a finger probe 106.
Injected ICG 202 is detected by a sensor 204 on the finger 206 from fractional pulsatile changes 208, 210 in optical absorption using LED lights 212. The optical peak absorption of 805 nm as shown in FIG. 2B and 905 nm as shown in FIG. 2C allows continuous measurements of ICG-PDR. The clearance of the injected dye from the blood (mg/l) can be calculated as:
The ICG-PDR is calculated as the ICG clearance (CICG) over time, as shown in the graph in FIG. 3.
Consecutive adult brain-dead donors in the local donation service area, whose livers were offered to the study center, were assessed for liver function using the methods of the current disclosure, after permission was acquired. Immediately prior to organ procurement, indocyanine green elimination tests were conducted using the non-invasive liver function monitoring system shown in FIG. 1 and FIG. 2A. Each patient received an ICG finger clip connected to a liver function monitor. A dose of 0.25 mg/kg ICG (ICG—PULSION, Pulsion Medical Systems) was given through a central vein as a bolus and immediately flushed with 10 mL of normal saline. All of the ICG-PDR measurements were acquired using the LiMON liver function monitor manufactured by Pulsion Medical Systems, Munich, Germany.

Turning to `CC1(C)C(/C=C/C=C/C=C/C=C2\N(CCCCS(=O)(=O)O)c3ccc4ccccc4c3C2(C)C)=[N+](CCCCS(=O)(=O)[O-])c2ccc3ccccc3c21` [ICG, Indocyanine Green], the “IGG-PDR, Mean (SD), Accepted” value is recorded as 24.1 (6.7) %/min; the “IGG-PDR, Mean (SD), Rejected” value is reported as 17.9 (4.7) %/min; the “PDR, sample PULSION-LiMON ICG trace of a non-acceptable liver” value is given as 12.9 % clearance per minute; the “PDR, sample PULSION-LiMON ICG trace of an accepted liver” value is 21.5 % clearance per minute.
